Assays:
Format in all cases: in vivo, human
[1] = system: seborrheic keratosis; assay: Treatment of seborrheic keratosis generated from senile plaque by oral cabergoline; conditions: patient A
Source text: Investigation was made for the treatment of seborrheic keratosis generated from senile plaque. On the back side of the wrist of the right hand of patient A, there was seborrheic keratosis with width of 15 mm×length of 10 mm, which had remained as a problem for 13 years. In summer, elevation of the skin of about 4 mm with blackish brown color occurred.
Furthermore, 2 years ago, seborrheic keratosis with width of 13 mm×length of 9 mm was caused from senile plaque on the back of the right hand, and elevation of the skin of about 2 mm with dark brown color was recognized. […] Thus, it is recognized that the seborrheic keratosis with a short clinical history is more responsive to the treatment.

[2] = Slimming effect of cabergoline 0.25 mg/week in patient A
Procedure: Due to an illness, patient A had to undergo the cabergoline treatment from the end of June of year 2013, and for this reason, attempted to lose weight again. Since it was expected that the body weight would be gained back, the target value was set at 56.5 kg, and a long-term plan without any exercise or restricted diet was adopted. However, regular meals were taken and only the overeating was strictly avoided.
Meanwhile, since cabergoline was administered at 0.25 mg/week for 3 months of the measurement period, the total dose of cabergoline was calculated to be 3 mg. […] In this regard, it is considered that no side effect would appear with administration of such a small amount.

[3] = system: prolactin level in blood; assay: Prolactin level in blood of patient A (prolactin-producing pituitary adenoma) during cabergoline treatment
Procedure: In view of the dramatic improvement of prolactin level, the doctor ordered that the cabergoline administration for the next 1 month be changed to one tablet/week, and oral administration be carried out before sleeping on Thursday. […] As such, the cabergoline administration was maintained at one tablet/week, and the administration period was extended up to 2 months.
Thus, the treatment regimen using cabergoline from August 15 to October 3 was also determined to be oral administration of one tablet (0.25 mg) on Thursday.

[4] = patient A, 0.25 mg/week, November 14
[5] = patient A, 0.25 mg/week, November 28
[6] = patient A, 0.25 mg/week, October 3
[7] = patient A, 0.25 mg/week, October 17
[8] = patient A, 0.25 mg/week, October 31
[9] = patient A, 0.25 mg/week, Sep. 5, 2013 (start of measurement period)
[10] = patient A, 0.25 mg/week, September 19

## C=CCN1C[C@H](C(=O)N(CCCN(C)C)C(=O)NCC)C[C@@H]2c3cccc4[nH]cc(c34)C[C@H]21 [cabergoline]
[1]; 13 years history, oral cabergoline over the last year
  Color of seborrheic keratosis on back side of right wrist: faded from blackish brown to brown
[1]; as of March 22, initially dark brown
  Color of seborrheic keratosis on the back of the right hand: faded to pale yellow brown
[1]; lesion width 15 mm×length 10 mm, 13 years history, elevation about 4 mm, oral cabergoline over the last year
  Elevation of the skin, seborrheic keratosis on back side of right wrist: became flattened
[2]; patient A during weight loss under cabergoline
  Hungry feeling: no hungry feeling
[2]; patient A under cabergoline, reduced from 91 cm at a maximum
  Waist size: 83 cm
[2]; patient A under cabergoline, target value 56.5 kg, no exercise or restricted diet
  Body weight course: steadily reduced to the target value
[2]; patient A, 0.25 mg/week, December 12
  Obesity BMI: 24.0
[2]; patient A, 0.25 mg/week, December 12 (15 weeks)
  Body weight: 56.1 kg
[2]; patient A, 0.25 mg/week, December 12, since previous measurement
  Weight loss: 0.7 kg
[2]; patient A, 0.25 mg/week, December 12, vs Sep. 5, 2013
  Total weight loss (%): −10.0%
[2]; [4]
  Body weight: 57.5 kg
  Obesity BMI: 24.6
[2]; patient A, 0.25 mg/week, November 14, since previous measurement
  Weight loss: 0.8 kg
[2]; patient A, 0.25 mg/week, November 14, vs Sep. 5, 2013
  Total weight loss (%): −7.7%
[2]; [5]
  Body weight: 56.8 kg
  Obesity BMI: 24.3
[2]; patient A, 0.25 mg/week, November 28, since previous measurement
  Weight loss: 0.7 kg
[2]; patient A, 0.25 mg/week, November 28, vs Sep. 5, 2013
  Total weight loss (%): −8.9%
[2]; [6]
  Body weight: 60.1 kg
  Obesity BMI: 25.7
[2]; patient A, 0.25 mg/week, October 3, since previous measurement
  Weight loss: 1.2 kg
[2]; patient A, 0.25 mg/week, October 3, vs Sep. 5, 2013
  Total weight loss (%): −3.5%
[2]; [7]
  Body weight: 59.1 kg
  Obesity BMI: 25.2
[2]; patient A, 0.25 mg/week, October 17, since previous measurement
  Weight loss: 1.0 kg
[2]; patient A, 0.25 mg/week, October 17, vs Sep. 5, 2013
  Total weight loss (%): −5.1%
[2]; [8]
  Body weight: 58.3 kg
  Obesity BMI: 24.9
[2]; patient A, 0.25 mg/week, October 31, since previous measurement
  Weight loss: 0.8 kg
[2]; patient A, 0.25 mg/week, October 31, vs Sep. 5, 2013
  Total weight loss (%): −6.4%
[2]; [9]
  Body weight: 62.3 kg
  Obesity BMI: 26.6
[2]; [10]
  Body weight: 61.3 kg
  Obesity BMI: 26.2
[2]; patient A, 0.25 mg/week, September 19, since previous measurement
  Weight loss: 1.0 kg
[2]; patient A, 0.25 mg/week, September 19, vs Sep. 5, 2013
  Total weight loss (%): −1.6%
[2]; patient A, oral administration, normal BMI 21.5 to 24.9
  Time after which BMI was decreased to a normal level: 8 weeks
[2]; patient A, Mar. 14, 2015
  Body weight: 54.2 kg
  Obesity BMI: 23.2
[2]; patient A, Mar. 14, 2015, since previous measurement
  Weight loss: 1.9 kg
[2]; patient A, Mar. 14, 2015, vs Sep. 5, 2013
  Total weight loss (%): −13.0%
[3]; August 14, after further 4 weeks at one tablet (0.25 mg)/week oral
  prolactin level in blood: 47.8 ng/mL
[3]; July 17, after 4 weeks at 2 mg/4 weeks oral, level on April 18 was 20888 ng/mL
  prolactin level in blood: 101.8 ng/mL
[3]; level before the decrease seen on August 14
  prolactin level in blood (earlier level as restated): 102 ng/mL

Source: patent US20170112741A1, “AGENT FOR AMELIORATING SKIN SYMPTOM, HAIR GROWTH AGENT OR SLIMMING AGENT” (GOLDCREST MEDICINE INSTITUTE CO., LTD., priority 2014, published 2017)
